# Laboratory results taken from US7928238B2, “1,2,3,4-tetrahydro-quinoline derivatives as CETP inhibitors” (Janssen Pharmaceutica NV, priority 2006, dated 2011).
# Where “and” joins values, the source holds several entries; their conditions need not be identical. Identical values can stand only once.
# Biological target: T1, CETP (Homo sapiens, UniProt P11597)
# T1 construct: from tissue; host or cells: human plasma from normal volunteers
# T1 sequence (P11597 18-493): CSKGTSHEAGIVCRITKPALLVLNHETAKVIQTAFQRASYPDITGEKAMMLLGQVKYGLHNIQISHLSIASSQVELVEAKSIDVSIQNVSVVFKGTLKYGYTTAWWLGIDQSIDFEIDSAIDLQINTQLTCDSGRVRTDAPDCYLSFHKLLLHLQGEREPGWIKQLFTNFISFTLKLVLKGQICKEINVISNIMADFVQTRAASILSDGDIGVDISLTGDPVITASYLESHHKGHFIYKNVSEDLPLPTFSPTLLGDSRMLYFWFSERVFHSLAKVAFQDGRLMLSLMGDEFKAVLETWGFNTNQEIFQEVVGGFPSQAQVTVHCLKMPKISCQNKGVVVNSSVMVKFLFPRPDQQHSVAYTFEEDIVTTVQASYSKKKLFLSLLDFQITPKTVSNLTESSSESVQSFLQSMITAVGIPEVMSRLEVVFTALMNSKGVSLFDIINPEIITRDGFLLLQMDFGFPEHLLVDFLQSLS
# Test: CETP in vitro assay (Amersham kit TRKQ7005; modified protocol in human plasma, [3H]CE-HDL transfer)
# Type: biochemical
# Conditions: for inhibition at 1 µM / % Inhibition @ 1 μM: 1 μM compound; for inhibition at 1 µM: read-out: % Inhibition @ 1 μM; for IC50: from plots of % control versus compound concentration
# Method: The CETP inhibitory activity of the compounds was determined using a commercially available kit from Amersham Biosciences (Catalog #TRKQ7005).
# Briefly, 80 μl of human plasma (obtained from normal volunteers), approximately 25 μg/ml (20 μl) of [^3H]CE-HDL (Amersham Biosciences from kit TRKQ7005) and 1 μl of compound dissolved in DMSO was incubated for at least 4 hrs at 37° C. and non-specific transfer was determined by incubating a corresponding plate at 4° C. (blank). After the incubation period, 10 μl of a solution of 1% Dextralip 50/0.5M MgCl2, pH 7.4 was added, vortexed and incubated at room temperature for 10 min. The plate was then centrifuged for 30 min at 10° C. at 300 rpm in a Sorvall RT6000B centrifuge. Fifty microliters of the supernatant was transferred to a Picoplate (Packard) containing 100 μl of Microscint 40 (Perkin Elmer) and mixed for 30 min using a plate mixer. The radioactivity was counted using a TopCount (Perkin Elmer) and the % control was determined in the samples using the following formula: % transfer relative to vehicle controls (% control)=[cpm blank−cpm test]/cpm blank/cpm control]×100. IC50s were calculated from plots of the % control versus compound concentration.
Structure (SMILES),inhibition at 1 µM [%],% Inhibition @ 1 μM,IC50
COc1cccc(-c2cccc3c2CC[C@H](c2cccc(OC(F)(F)F)c2)N3C[C@H](O)C(F)(F)F)c1 [Compound 59],30,–,–
"OC(CN1c2cccc(-c3cccc(OC(F)(F)F)c3)c2CCC1c1cccc(OC(F)(F)F)c1)C(F)(F)F (stereo not shown) [Compound 31, 3-[2,5-Bis-(3-trifluoromethoxy-phenyl)-3,4-dihydro-2H-quinolin-1-yl]-1,1,1-trifluoro-propan-2-ol]",–,77% and 72% and 67% and 66% and 62%,150 nM and 100 nM
"OC(CN1c2cccc(-c3ccc(C(F)(F)F)cc3)c2CCC1c1cccc(OC(F)(F)C(F)F)c1)C(F)(F)F (stereo not shown) [Compound 4, 1,1,1-Trifluoro-3-[2-[3-(1,1,2,2-tetrafluoro-ethoxy)-phenyl]-5-(4-trifluoromethyl-phenyl)-3,4-dihydro-2H-quinolin-1-yl]-propan-2-ol]",–,1%,–
"CCC1CCc2c(-c3cccc(OC(F)(F)F)c3)cccc2N1CC(O)C(F)(F)F (stereo not shown) [Compound 36, 3-[2-Ethyl-5-(3-trifluoromethoxy-phenyl)-3,4-dihydro-2H-quinolin-1-yl]-1,1,1-trifluoro-propan-2-ol]",–,11% and 13%,–
"OC(CCl)CN1c2cccc(-c3cccc(OC(F)(F)F)c3)c2CCC1c1cccc(OC(F)(F)F)c1 (stereo not shown) [Compound 48, 1-[2,5-Bis-(3-trifluoromethoxy-phenyl)-3,4-dihydro-2H-quinolin-1-yl]-3-chloro-propan-2-ol]",–,0%,–
"OC(CN1c2cccc(-c3cccc(OC(F)(F)F)c3)c2CCC1c1cccc(OC(F)(F)C(F)F)c1)C(F)(F)F (single isomer, unassigned) [Compound 2, 1,1,1-Trifluoro-3-[2-[3-(1,1,2,2-tetrafluoro-ethoxy)-phenyl]-5-(3-trifluoromethoxy-phenyl)-3,4-dihydro-2H-quinolin-1-yl]-propan-2-ol]",–,86%,450 nM and 150 nM
"OC(CN1c2cccc(-c3cccs3)c2CCC1c1cccc(OC(F)(F)C(F)F)c1)C(F)(F)F (stereo not shown) [Compound 75, 1,1,1-Trifluoro-3-{2-[3-(1,1,2,2-tetrafluoro-ethoxy)-phenyl]-5-thiophen-2-yl-3,4-dihydro-2H-quinolin-1-yl}-propan-2-ol]",–,39%,–
"OC(CN1c2cccc(-c3cccc(OC(F)(F)F)c3)c2CCC1c1ccccc1)C(F)(F)F (stereo not shown) [Compound 20, 1,1,1-Trifluoro-3-[2-phenyl-5-(3-trifluoromethoxy-phenyl)-3,4-dihydro-2H-quinolin-1-yl]-propan-2-ol]",–,6%,–
"OC(CN1c2cccc(-c3ccsc3)c2CCC1c1cccc(OC(F)(F)C(F)F)c1)C(F)(F)F (stereo not shown) [Compound 64, 1,1,1-Trifluoro-3-{2-[3-(1,1,2,2-tetrafluoro-ethoxy)-phenyl]-5-thiophen-3-yl-3,4-dihydro-2H-quinolin-1-yl}-propan-2-ol]",–,61% and 70% and 78%,300 nM
"OC(CN1c2cccc(-c3ccc(OC(F)(F)F)cc3)c2CCC1c1cccc(OC(F)(F)C(F)F)c1)C(F)(F)F (stereo not shown) [Compound 7, 1,1,1-Trifluoro-3-[2-[3-(1,1,2,2-tetrafluoro-ethoxy)-phenyl]-5-(4-trifluoromethoxy-phenyl)-3,4-dihydro-2H-quinolin-1-yl]-propan-2-ol]",–,"61, 61%",–
"OC(CN1c2cccc(-c3cccc(OC(F)(F)F)c3)c2CCC1c1ccc(OC(F)(F)C(F)F)cc1)C(F)(F)F (stereo not shown) [Compound 21, 1,1,1-Trifluoro-3-[2-[4-(1,1,2,2-tetrafluoro-ethoxy)-phenyl]-5-(3-trifluoromethoxy-phenyl)-3,4-dihydro-2H-quinolin-1-yl]-propan-2-ol]",–,5%,–
"CCC1CCc2c(-c3cccc(OC(F)(F)F)c3)cccc2N1Cc1cccc(OC(F)(F)F)c1 (stereo not shown) [Compound 39, 2-Ethyl-1-(3-trifluoromethoxy-benzyl)-5-(3-trifluoromethoxy-phenyl)-1,2,3,4-tetrahydro-quinoline]",17,–,–
"OC(CN1c2cccc(Oc3cccc(Cl)c3Cl)c2CCC1c1cccc(OC(F)(F)C(F)F)c1)C(F)(F)F (stereo not shown) [Compound 86, 3-{5-(2,3-Dichloro-phenoxy)-2-[3-(1,1,2,2-tetrafluoro-ethoxy)-phenyl]-3,4-dihydro-2H-quinolin-1-yl}-1,1,1-trifluoro-propan-2-ol]",67,–,–
"OC(CN1c2cccc(-c3ccsc3)c2CCC1c1cccc(OC(F)(F)C(F)F)c1)C(F)(F)F (stereo not shown) [Compound 65, 1,1,1-Trifluoro-3-{2-[3-(1,1,2,2-tetrafluoro-ethoxy)-phenyl]-5-thiophen-3-yl-3,4-dihydro-2H-quinolin-1-yl}-propan-2-ol]",–,16%,–
"OC(CN1c2cccc(-c3cccc(OC(F)(F)F)c3)c2CCC1c1ccccc1OC(F)(F)C(F)F)C(F)(F)F (stereo not shown) [Compound 90, 1,1,1-Trifluoro-3-[2-[2-(1,1,2,2-tetrafluoro-ethoxy)-phenyl]-5-(3-trifluoromethoxy-phenyl)-3,4-dihydro-2H-quinolin-1-yl]-propan-2-ol]",–,0%,–
"OC(CN1c2cccc(-c3cccc(OC(F)(F)F)c3)c2CCC1c1cccc(Cl)c1)C(F)(F)F (stereo not shown) [Compound 29, 3-[2-(3-Chloro-phenyl)-5-(3-trifluoromethoxy-phenyl)-3,4-dihydro-2H-quinolin-1-yl]-1,1,1-trifluoro-propan-2-ol]",–,39%,290 nM
"OC(CN1c2cccc(-c3cccc(OC(F)(F)F)c3)c2CCC1c1cccc(F)c1)C(F)(F)F (stereo not shown) [Compound 23, 1,1,1-Trifluoro-3-[2-(3-fluoro-phenyl)-5-(3-trifluoromethoxy-phenyl)-3,4-dihydro-2H-quinolin-1-yl]-propan-2-ol]",–,33%,–
"N#Cc1cccc(C2CCc3c(-c4cccc(OC(F)(F)F)c4)cccc3N2CC(O)C(F)(F)F)c1 (stereo not shown) [Compound 28, 3-[1-(3,3,3-Trifluoro-2-hydroxy-propyl)-5-(3-trifluoromethoxy-phenyl)-1,2,3,4-tetrahydro-quinolin-2-yl]-benzonitrile]",–,25%,–
"OC(CN1c2cccc(-c3cccc(OC(F)(F)F)c3)c2CCC1c1ccccc1)C(F)(F)F (stereo not shown) [Compound 19, 1,1,1-Trifluoro-3-[2-phenyl-5-(3-trifluoromethoxy-phenyl)-3,4-dihydro-2H-quinolin-1-yl]-propan-2-ol]",–,21%,–

# Results, then the compound that gave them:
inhibition at 1 µM [%],% Inhibition @ 1 μM,IC50,Structure (SMILES)
39,34%,110 nM,C[C@@H](O)CN1c2cccc(-c3cccc(F)c3)c2CC[C@@H]1c1cccc(OC(F)(F)F)c1 [Compound 55]
100,98%,140 nM and 160 nM,COc1cccc(-c2cccc3c2CC[C@H](c2cccc(OC(F)(F)C(F)F)c2)N3C[C@H](O)C(F)(F)F)c1 [Compound 83]
–,82% and 85%,177 nM and 293 nM,"N#Cc1cccc(-c2cccc3c2CCC(c2cccc(OC(F)(F)C(F)F)c2)N3CC(O)C(F)(F)F)c1 (stereo not shown) [Compound 9, 3-[2-[3-(1,1,2,2-Tetrafluoro-ethoxy)-phenyl]-1-(3,3,3-trifluoro-2-hydroxy-propyl)-1,2,3,4-tetrahydro-quinolin-5-yl]-benzonitrile]"
30,–,–,C[C@H](O)CN1c2cccc(-c3cccc(OC(F)(F)F)c3)c2CC[C@H]1c1cccc(OC(F)(F)C(F)F)c1 [Compound 62]
–,29%,–,"CC(C)c1cccc(-c2cccc3c2CCC(c2cccc(OC(F)(F)C(F)F)c2)N3CC(O)C(F)(F)F)c1 (stereo not shown) [Compound 67, 1,1,1-Trifluoro-3-{5-(3-isopropyl-phenyl)-2-[3-(1,1,2,2-tetrafluoro-ethoxy)-phenyl]-3,4-dihydro-2H-quinolin-1-yl}-propan-2-ol]"
13,–,–,C[C@@H](O)CN1c2cccc(-c3cccc(OC(F)(F)F)c3)c2CC[C@H]1c1cccc(OC(F)(F)F)c1 [Compound 54]
37,32%,150 nM,C[C@@H](O)CN1c2cccc(-c3cccc(Cl)c3)c2CC[C@@H]1c1cccc(OC(F)(F)F)c1 [Compound 40]
0,–,–,C[C@H](O)CN1c2cccc(-c3cccc(OC(F)(F)F)c3)c2CC[C@@H]1c1cccc(OC(F)(F)C(F)F)c1 [Compound 61]
38,48%,–,"C[C@@H](O)CN1c2cccc(-c3cccc(F)c3)c2CC[C@@H]1c1cccc(OC(F)(F)C(F)F)c1 [Compound 77, (αR,2R)-5-(3-Fluorophenyl)-3,4-dihydro-α-methyl-2-[3-(1,1,2,2-tetrafluoroethoxy)phenyl]-1(2H)-quinolineethanol]"
